Key:
barnyard grass [1] = experiment: Test Example 3: herbicidal effect by foliage application, Wagner pot (Table 18, symbol H); type: in vivo, barnyard grass (Echinochloa crus-galli); conditions: 320 g/ha
How it was run: (§1)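 Plants were sown in alluvial soil held under 0.1–0.5 cm standing water and grown 14 days in a greenhouse at 25–30 °C. An emulsifiable formulation, water-diluted to the set dose, was then sprayed onto the foliage, and effects were scored three weeks later using previously defined criteria.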

blackgrass [2] = experiment: Test Example 5: herbicidal effect by foliage application, plastic box (Table 20, symbol J); type: in vivo, blackgrass (Alopecurus myosuroides); conditions: 320 g/ha
How it was run: (§2)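 Post-emergence foliar test in sterilized diluvial soil. Compound applied as water-diluted emulsion at a predetermined rate to 14-day-old plants; evaluation at three weeks.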

velvetleaf [3] = experiment: Test Example 4: herbicidal effect by soil treatment (Table 19, symbol M); type: in vivo, velvetleaf (Abutilon theophrasti); conditions: amount of applied herbicide 320 g/ha
From the text: (§3) [Test Example 4] Herbicidal Effect Test by Soil Treatment
(§4) Sterilized diluvial soil was placed in a plastic box having a length of 21 cm, a width of 13 cm, and a depth of 7 cm. The seeds of each of southern crabgrass, green foxtail, barnyard grass, wild oat, blackgrass, Italian ryegrass, windgrass, velvetleaf, redroot pigweed, lambsquarters, chickweed, false cleavers, persian speedwell, corn, soybean, rice, wheat, beet, and rapeseed were sowed in a spot-like manner and covered with the soil having a thickness of about 1.5 cm. Subsequently, the emulsion agent of the compound of the present invention prepared according to Formulation Example 2 was diluted with water so as to achieve a predetermined herbicide amount, and the diluted emulsion agent was uniformly applied to the surface of the soil with a small-sized spray. The plastic box was placed in a greenhouse at 25° C. to 30° C. for growth of the plants. Three weeks after the herbicide application, the effect of the herbicide on each plant was evaluated according to the criteria of Test Example 1.

Italian ryegrass [4] = experiment: Test Example 5: herbicidal effect by foliage application, plastic box (Table 20, symbol K); type: in vivo, Italian ryegrass (Lolium multiflorum); conditions: 320 g/ha
How it was run: as §2

chickweed [5] = experiment: Test Example 5: herbicidal effect by foliage application, plastic box (Table 20, symbol P); type: in vivo, common chickweed (Stellaria media); conditions: 320 g/ha
How it was run: as §2

rice flat sedge = experiment: Test Example 3: herbicidal effect by foliage application, Wagner pot (Table 18, symbol E); type: in vivo, rice flat sedge (Cyperus iria); conditions: 320 g/ha
How it was run: as §1

velvetleaf [6] = experiment: Test Example 5: herbicidal effect by foliage application, plastic box (Table 20, symbol M); type: in vivo, velvetleaf (Abutilon theophrasti); conditions: 320 g/ha
How it was run: as §2

persian speedwell = experiment: Test Example 5: herbicidal effect by foliage application, plastic box (Table 20, symbol R); type: in vivo, Persian speedwell (Veronica persica); conditions: 320 g/ha
How it was run: as §2

lambsquarters [7] = experiment: Test Example 5: herbicidal effect by foliage application, plastic box (Table 20, symbol O); type: in vivo, lambsquarters (Chenopodium album); conditions: 320 g/ha
How it was run: as §2

green foxtail [8] = experiment: Test Example 5: herbicidal effect by foliage application, plastic box (Table 20, symbol G); type: in vivo, green foxtail (Setaria viridis); conditions: 320 g/ha
How it was run: as §2

wild oat [9] = experiment: Test Example 5: herbicidal effect by foliage application, plastic box (Table 20, symbol I); type: in vivo, wild oat (Avena fatua); conditions: 320 g/ha
How it was run: as §2

blackgrass [10] = experiment: Test Example 4: herbicidal effect by soil treatment (Table 19, symbol J); type: in vivo, blackgrass (Alopecurus myosuroides); conditions: amount of applied herbicide 320 g/ha
From the text: as §3, §4

Chinese sprangletop = experiment: Test Example 3: herbicidal effect by foliage application, Wagner pot (Table 18, symbol D); type: in vivo, chinese sprangletop (Leptochloa chinensis); conditions: 320 g/ha
How it was run: as §1

barnyard grass [11] = experiment: Test Example 5: herbicidal effect by foliage application, plastic box (Table 20, symbol H); type: in vivo, barnyard grass (Echinochloa crus-galli); conditions: 320 g/ha
How it was run: as §2

chickweed [12] = experiment: Test Example 4: herbicidal effect by soil treatment (Table 19, symbol P); type: in vivo, common chickweed (Stellaria media); conditions: amount of applied herbicide 320 g/ha
From the text: as §3, §4

southern crabgrass [13] = experiment: Test Example 4: herbicidal effect by soil treatment (Table 19, symbol F); type: in vivo, southern crabgrass (Digitaria ciliaris); conditions: amount of applied herbicide 320 g/ha
How it was run: (§5)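 Emulsion of test compound, water-diluted to predetermined amount, sprayed on soil after sowing (seed depth ~1.5 cm, sterilized diluvial soil). Greenhouse, 25–30° C. Effect graded at three weeks post-spray.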

lambsquarters [14] = experiment: Test Example 4: herbicidal effect by soil treatment (Table 19, symbol O); type: in vivo, lambsquarters (Chenopodium album); conditions: amount of applied herbicide 320 g/ha
From the text: as §3, §4

southern crabgrass [15] = experiment: Test Example 5: herbicidal effect by foliage application, plastic box (Table 20, symbol F); type: in vivo, southern crabgrass (Digitaria ciliaris); conditions: 320 g/ha
How it was run: as §2

barnyard grass [16] = experiment: Test Example 4: herbicidal effect by soil treatment (Table 19, symbol H); type: in vivo, barnyard grass (Echinochloa crus-galli); conditions: amount of applied herbicide 320 g/ha
From the text: as §3, §4

redroot pigweed [17] = experiment: Test Example 5: herbicidal effect by foliage application, plastic box (Table 20, symbol N); type: in vivo, redroot pigweed (Amaranthus retroflexus); conditions: 320 g/ha
How it was run: as §2

windgrass [18] = experiment: Test Example 4: herbicidal effect by soil treatment (Table 19, symbol L); type: in vivo, windgrass (Apera spica-venti); conditions: amount of applied herbicide 320 g/ha
From the text: as §3, §4

wild oat [19] = experiment: Test Example 4: herbicidal effect by soil treatment (Table 19, symbol I); type: in vivo, wild oat (Avena fatua); conditions: amount of applied herbicide 320 g/ha
From the text: as §3, §4

windgrass [20] = experiment: Test Example 5: herbicidal effect by foliage application, plastic box (Table 20, symbol L); type: in vivo, windgrass (Apera spica-venti); conditions: 320 g/ha
How it was run: as §2

green foxtail [21] = experiment: Test Example 4: herbicidal effect by soil treatment (Table 19, symbol G); type: in vivo, green foxtail (Setaria viridis); conditions: amount of applied herbicide 320 g/ha
How it was run: as §5

Italian ryegrass [22] = experiment: Test Example 4: herbicidal effect by soil treatment (Table 19, symbol K); type: in vivo, Italian ryegrass (Lolium multiflorum); conditions: amount of applied herbicide 320 g/ha
From the text: as §3, §4

redroot pigweed [23] = experiment: Test Example 4: herbicidal effect by soil treatment (Table 19, symbol N); type: in vivo, redroot pigweed (Amaranthus retroflexus); conditions: amount of applied herbicide 320 g/ha
From the text: as §3, §4

[24] = foliage application after 14-day growth, evaluated three weeks after application
[25] = foliage application, three weeks after application

Cc1nn(C)c(=O)c(-c2c(-c3ccccc3F)sc3c(Cl)cccc23)c1O [4-058]
herbicidal effect on barnyard grass (H) (barnyard grass [1]): 4 (Herbicidal rate of 70% or more and less than 90%)
herbicidal effect on J: blackgrass (evaluation grade 0-5) (blackgrass [2]; [24]): 0 (Herbicidal rate of 5% or less (almost no effect))
Herbicidal effect by soil treatment, M: velvetleaf (velvetleaf [3]): 0 (Herbicidal rate of 5% or less (almost no effect))
herbicidal effect on K: Italian ryegrass (evaluation grade 0-5) (Italian ryegrass [4]; [24]): 3 (Herbicidal rate of 40% or more and less than 70%)
herbicidal effect on P: chickweed (evaluation grade 0-5) (chickweed [5]; [24]): 5 (Herbicidal rate of 90% or more (almost completely withered))
herbicidal effect on rice flat sedge (E) (rice flat sedge): 3 (Herbicidal rate of 40% or more and less than 70%)
herbicidal effect on M: velvetleaf (evaluation grade 0-5) (velvetleaf [6]; [24]): 1 (Herbicidal rate of 5% or more and less than 20%)
herbicidal effect on R: persian speedwell (evaluation grade 0-5) (persian speedwell; [24]): 5 (Herbicidal rate of 90% or more (almost completely withered))
herbicidal effect on O: lambsquarters (evaluation grade 0-5) (lambsquarters [7]; [24]): 2 (Herbicidal rate of 20% or more and less than 40%)
herbicidal effect on G: green foxtail (evaluation grade 0-5) (green foxtail [8]; [24]): 0 (Herbicidal rate of 5% or less (almost no effect))
herbicidal effect on I: wild oat (evaluation grade 0-5) (wild oat [9]; [24]): 0 (Herbicidal rate of 5% or less (almost no effect))
Herbicidal effect by soil treatment, J: blackgrass (blackgrass [10]): 0 (Herbicidal rate of 5% or less (almost no effect))
herbicidal effect on Chinese sprangletop (D) (Chinese sprangletop): 3 (Herbicidal rate of 40% or more and less than 70%)
herbicidal effect on H: barnyard grass (evaluation grade 0-5) (barnyard grass [11]; [24]): 0 (Herbicidal rate of 5% or less (almost no effect))
Herbicidal effect by soil treatment, P: chickweed (chickweed [12]): 5 (Herbicidal rate of 90% or more (almost completely withered))
Herbicidal effect by soil treatment, F: southern crabgrass (southern crabgrass [13]): 0 (Herbicidal rate of 5% or less (almost no effect))
Herbicidal effect by soil treatment, O: lambsquarters (lambsquarters [14]): 0 (Herbicidal rate of 5% or less (almost no effect))
herbicidal effect on F: southern crabgrass (evaluation grade 0-5) (southern crabgrass [15]; [24]): 2 (Herbicidal rate of 20% or more and less than 40%)
Herbicidal effect by soil treatment, H: barnyard grass (barnyard grass [16]): 0 (Herbicidal rate of 5% or less (almost no effect))
herbicidal effect on N: redroot pigweed (evaluation grade 0-5) (redroot pigweed [17]; [24]): 3 (Herbicidal rate of 40% or more and less than 70%)
Herbicidal effect by soil treatment, L: windgrass (windgrass [18]): 0 (Herbicidal rate of 5% or less (almost no effect))
Herbicidal effect by soil treatment, I: wild oat (wild oat [19]): 0 (Herbicidal rate of 5% or less (almost no effect))
herbicidal effect on L: windgrass (evaluation grade 0-5) (windgrass [20]; [24]): 4 (Herbicidal rate of 70% or more and less than 90%)
Herbicidal effect by soil treatment, G: green foxtail (green foxtail [21]): 0 (Herbicidal rate of 5% or less (almost no effect))
Herbicidal effect by soil treatment, K: Italian ryegrass (Italian ryegrass [22]): 2 (Herbicidal rate of 20% or more and less than 40%)
Herbicidal effect by soil treatment, N: redroot pigweed (redroot pigweed [23]): 0 (Herbicidal rate of 5% or less (almost no effect))

Cc1nn(C)c(=O)c(-c2c(-c3ccc(OC(F)(F)F)cc3)sc3ccccc23)c1O [1-031]
herbicidal effect on H (barnyard grass), rating 0-5 (barnyard grass [1]): 4 (Herbicidal rate of 70% or more and less than 90%)
herbicidal effect grade, J: blackgrass (blackgrass [2]; [25]): 3 (Herbicidal rate of 40% or more and less than 70%)
herbicidal effect grade, K: Italian ryegrass (Italian ryegrass [4]; [25]): 5 (Herbicidal rate of 90% or more (almost completely withered))
herbicidal effect grade, P: chickweed (chickweed [5]; [25]): 5 (Herbicidal rate of 90% or more (almost completely withered))
herbicidal effect on E (rice flat sedge), rating 0-5 (rice flat sedge): 5 (Herbicidal rate of 90% or more (almost completely withered))
herbicidal effect grade, M: velvetleaf (velvetleaf [6]; [25]): 5 (Herbicidal rate of 90% or more (almost completely withered))
herbicidal effect grade, R: persian speedwell (persian speedwell; [25]): 5 (Herbicidal rate of 90% or more (almost completely withered))
herbicidal effect grade, O: lambsquarters (lambsquarters [7]; [25]): 5 (Herbicidal rate of 90% or more (almost completely withered))
herbicidal effect grade, G: green foxtail (green foxtail [8]; [25]): 4 (Herbicidal rate of 70% or more and less than 90%)
herbicidal effect grade, I: wild oat (wild oat [9]; [25]): 0 (Herbicidal rate of 5% or less (almost no effect))
herbicidal effect on D (Chinese sprangletop), rating 0-5 (Chinese sprangletop): 0 (Herbicidal rate of 5% or less (almost no effect))
herbicidal effect grade, H: barnyard grass (barnyard grass [11]; [25]): 3 (Herbicidal rate of 40% or more and less than 70%)
herbicidal effect grade, F: southern crabgrass (southern crabgrass [15]; [25]): 0 (Herbicidal rate of 5% or less (almost no effect))
herbicidal effect grade, N: redroot pigweed (redroot pigweed [17]; [25]): 5 (Herbicidal rate of 90% or more (almost completely withered))
herbicidal effect rating, I: wild oat (wild oat [19]): 0 (Herbicidal rate of 5% or less (almost no effect))
herbicidal effect grade, L: windgrass (windgrass [20]; [25]): 0 (Herbicidal rate of 5% or less (almost no effect))
herbicidal effect rating, K: Italian ryegrass (Italian ryegrass [22]): 3 (Herbicidal rate of 40% or more and less than 70%)
herbicidal effect rating, N: redroot pigweed (redroot pigweed [23]): 4 (Herbicidal rate of 70% or more and less than 90%)
